Reference: patent US20210330566A1, “WATER-SOLUBILIZED MIXTURE OF GINSENOSIDE COMPOUND K AND METHOD OF WATERSOLUBILIZING GINSENOSIDE COMPOUND K” (VENN SKINCARE, INC., priority 2018, published 2021)

Assay: Solubility test of ginsenoside compound K depending on type of solvent
Assay type: physicochemical
Conditions: 95% of solvent and 5% of ginsenoside compound K
Method: The solubility of ginsenoside compound K was tested to be checked for representative polar and nonpolar solvents mainly used in cosmetics.

CC(C)=CCC[C@](C)(O[C@@H]1O[C@H](CO)[C@@H](O)[C@H](O)[C@H]1O)[C@H]1CC[C@]2(C)[C@@H]1[C@H](O)C[C@@H]1[C@@]3(C)CC[C@H](O)C(C)(C)[C@@H]3CC[C@]12C [ginsenoside compound K, 20-O-β-D-glucopyranosyl-20(S)-protopanaxadiol]
Soluble: Solubility (60° C.) (solvent Ethanol) | Solubility (room temperature) (solvent Ethanol)
Insoluble: Solubility (60° C.) (solvent Glycerin) | Solubility (room temperature) (solvent Glycerin) | Solubility (60° C.) (solvent Mineral Oil) | Solubility (room temperature) (solvent Mineral Oil) | Solubility (60° C.) (solvent Non-Polar Ester Oil) | Solubility (room temperature) (solvent Non-Polar Ester Oil) | Solubility (60° C.) (solvent Polar Ester Oil) | Solubility (room temperature) (solvent Polar Ester Oil) | Solubility (60° C.) (solvent Silicone) | Solubility (room temperature) (solvent Silicone) | Solubility (60° C.) (solvent Surfactant) | Solubility (room temperature) (solvent Surfactant) | Solubility (60° C.) (solvent Vegetable Oil) | Solubility (room temperature) (solvent Vegetable Oil) | Solubility (60° C.) (solvent Water) | Solubility (room temperature) (solvent Water)
